Experiments:
Assay in all cases: relative viability (nuclei count vs DMSO), 5 days (fraction); higher = more cells survive
[1] = compound: CC1=CC=C(C=C1)C(=O)CN2C3=C(CCCC3)SC2=N [Pifithrin_alpha] + N=C(N)NC(=N)NCCc1ccccc1 [Phenformin] (partner 250 µM)
Summary of the method: (§1)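 Nuclei were stained with Hoechst during a one-step fixation (final 0.05% Triton X-100, 1% formaldehyde, 1 ug/ml Hoechst) carried out 5 days after dosing, then counted on 4× images. The cells, lung cancer lines in 1536-well plates, had been dosed by pin tool the day after seeding with one drug alone or a fixed anchor-drug dose plus five library-drug doses (not always all listed) in √10 steps. Relative viability is the nuclei count in treated wells divided by that in vehicle wells, and each value is the median of duplicate plates.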

[2] = compound: CC1=CC=C(C=C1)C(=O)CN2C3=C(CCCC3)SC2=N [Pifithrin_alpha] + Nc1ncn([C@H]2C[C@H](O)[C@@H](CO)O2)c(=O)n1 [Decitabine] (partner 2 µM)
Summary of the method: as §1

Axitinib + Alpelisib = compound: CNC(=O)c1ccccc1Sc1ccc2c(/C=C/c3ccccn3)n[nH]c2c1 [Axitinib] + Cc1nc(NC(=O)N2CCC[C@H]2C(N)=O)sc1-c1ccnc(C(C)(C)C(F)(F)F)c1 [Alpelisib] (partner 2 µM)
Summary of the method: as §1

Bemcentinib + Lapatinib = compound: Nc1nc(Nc2ccc3c(c2)CC[C@@H](N2CCCC2)CC3)nn1-c1cc2c(nn1)-c1ccccc1CCC2 [Bemcentinib] + CS(=O)(=O)CCNCc1ccc(-c2ccc3ncnc(Nc4ccc(OCc5cccc(F)c5)c(Cl)c4)c3c2)o1 [Lapatinib] (partner 2 µM)
Summary of the method: as §1

Row | Cell Line | relative viability ([1]; first compound 1 µM) | relative viability ([1]; first compound 3.162 µM) | relative viability ([1]; first compound 10 µM) | relative viability ([1]; first compound 31.62 µM) | relative viability ([1]; first compound 100 µM) | relative viability ([2]; first compound 1 µM) | relative viability ([2]; first compound 3.162 µM) | relative viability ([2]; first compound 10 µM) | relative viability ([2]; first compound 31.62 µM) | relative viability ([2]; first compound 100 µM) | relative viability (Axitinib + Alpelisib; first compound 0.005 µM) | relative viability (Axitinib + Alpelisib; first compound 0.01581 µM) | relative viability (Axitinib + Alpelisib; first compound 0.05 µM) | relative viability (Axitinib + Alpelisib; first compound 0.1581 µM) | relative viability (Axitinib + Alpelisib; first compound 0.5 µM) | relative viability (Bemcentinib + Lapatinib; first compound 0.04 µM) | relative viability (Bemcentinib + Lapatinib; first compound 0.1265 µM) | relative viability (Bemcentinib + Lapatinib; first compound 0.4 µM) | relative viability (Bemcentinib + Lapatinib; first compound 1.265 µM) | relative viability (Bemcentinib + Lapatinib; first compound 4 µM)
1 | RERF-LC-KJ | 0.454 | 0.402 | 0.368 | 0.316 | 0.263 | 0.681 | 0.621 | 0.562 | 0.382 | 0.451 | 0.87 | 0.767 | 0.842 | 0.77 | 0.876 | 0.848 | 1.02 | 1.15 | 0.919 | 0.885
2 | NCI-H1734 | 0.358 | 0.456 | 0.372 | 0.362 | 0.376 | 0.497 | 0.463 | 0.502 | 0.441 | 0.556 | 0.547 | 0.691 | 0.702 | 0.626 | 0.707 | 1.11 | 1.08 | 1.12 | 1.03 | 1.04
3 | NCI-H2087 | 0.356 | 0.488 | 0.485 | – | 0.451 | 0.252 | 0.291 | 0.262 | 0.203 | 0.267 | 1.18 | 1.04 | 0.993 | 1.07 | 1.22 | 0.992 | 0.951 | 1.08 | 1.01 | 1.01
4 | EKVX | 0.207 | – | 0.201 | 0.213 | 0.199 | 0.343 | 0.553 | 0.319 | 0.32 | 0.368 | 1.06 | 0.82 | 0.838 | 0.87 | 1 | 0.186 | 0.218 | 0.199 | 0.213 | 0.196
5 | NCI-H1915 | 0.385 | 0.424 | – | – | 0.435 | 0.27 | 0.254 | 0.249 | – | 0.224 | 1.08 | 1.08 | 1.03 | 1.08 | 1.08 | 0.958 | 1.07 | 0.979 | 1.09 | 1.05
6 | NCI-H3122 | 0.376 | 0.356 | 0.327 | – | 0.283 | 0.529 | 0.443 | 0.539 | 0.364 | 0.468 | 0.753 | 0.719 | 0.843 | 0.711 | 0.792 | 0.818 | 1.03 | 1.03 | 1.02 | 1.03
7 | BEN | 0.296 | 0.595 | 0.276 | 0.246 | 0.289 | 0.505 | 0.771 | 0.742 | 0.623 | 0.639 | 0.993 | 1.04 | 0.928 | 1.04 | 0.908 | 0.488 | 0.844 | 0.807 | 0.531 | 0.734
8 | 201T | 0.401 | 0.385 | 0.383 | 0.441 | 0.457 | 0.866 | 0.866 | 0.815 | 0.701 | 0.74 | 1.01 | 0.959 | 0.947 | 0.987 | 0.972 | 1 | 1.02 | 1.02 | 1.03 | 1.06
9 | NCI-H1792 | 0.292 | – | 0.472 | – | 0.372 | 0.457 | 0.48 | 0.624 | – | 0.423 | 0.797 | 0.715 | 0.671 | 0.699 | 0.683 | 0.899 | 0.855 | 1.11 | 0.969 | 0.896
10 | NCI-H1666 | 0.525 | 0.52 | 0.425 | 0.455 | 0.436 | 0.523 | 0.595 | 0.557 | 0.615 | 0.569 | 1.12 | 0.918 | 0.942 | 1.05 | 1.1 | 0.668 | 0.813 | 0.599 | 0.649 | 0.606
11 | NCI-H1993 | 0.474 | 0.461 | 0.49 | 0.547 | 0.511 | 0.514 | 0.494 | 0.609 | 0.467 | 0.505 | 0.664 | 0.643 | 0.655 | 0.784 | 0.693 | 0.695 | 0.757 | 0.847 | 0.8 | 0.885
12 | NCI-H460 | 0.494 | 0.576 | 0.473 | 0.179 | 0.443 | 0.531 | 0.496 | 0.392 | 0.218 | 0.215 | 0.569 | 0.571 | 0.54 | 0.549 | 0.821 | 0.931 | 1.46 | 1.3 | 1.14 | 1.12
13 | NCI-H2170 | 0.411 | 0.41 | 0.376 | 0.321 | 0.358 | 0.48 | 0.453 | 0.476 | 0.427 | 0.453 | 0.849 | 0.787 | 0.817 | 0.892 | 1.03 | 0.274 | 0.267 | 0.295 | 0.251 | 0.273
14 | LC-2-ad | – | 0.601 | 0.646 | – | 0.588 | 0.786 | 0.73 | 0.811 | 0.683 | 0.675 | 0.942 | 0.859 | 0.83 | 0.907 | 0.903 | 0.921 | 1.09 | 0.979 | 0.943 | 0.995
15 | HCC-78 | 0.433 | 0.727 | 0.664 | 0.645 | 0.69 | – | 0.623 | 0.673 | 0.623 | 0.56 | 0.34 | 0.328 | 0.3 | 0.322 | 0.366 | 0.113 | 0.443 | 0.693 | 0.281 | 0.0037
16 | NCI-H322M | 0.825 | 0.728 | 0.869 | 0.713 | 0.728 | 0.72 | 0.708 | 0.719 | 0.78 | 0.784 | 0.834 | 0.688 | 0.729 | 0.944 | 0.893 | 0.576 | 0.635 | 0.574 | 0.645 | 0.611
17 | NCI-H1651 | 0.345 | 0.351 | 0.387 | 0.26 | 0.317 | 0.166 | 0.642 | 0.569 | 0.537 | 0.635 | 1.03 | 0.944 | 0.971 | 0.937 | 1.12 | 0.836 | 0.979 | 1.1 | 0.815 | 0.822
18 | NCI-H1437 | 0.296 | 0.258 | 0.294 | 0.264 | 0.259 | 0.626 | 0.605 | 0.563 | 0.586 | 0.364 | 1.01 | 1.01 | 1.01 | 0.929 | 1.06 | 0.798 | 0.764 | 0.854 | 0.771 | 0.882
19 | A549 | – | 0.272 | 0.374 | 0.315 | 0.305 | – | 0.249 | 0.215 | 0.207 | 0.327 | 0.79 | 0.741 | 0.775 | 0.753 | 0.874 | 0.954 | 0.999 | 1.14 | 0.956 | 1.02
20 | NCI-H1355 | 0.456 | 0.401 | 0.378 | 0.351 | 0.38 | 0.308 | 0.349 | 0.339 | 0.29 | 0.304 | 0.891 | 0.825 | 0.794 | 0.897 | 0.909 | 0.908 | 1.1 | 1.04 | 1.13 | 1.07
21 | NCI-H1755 | 0.605 | 0.603 | 0.57 | 0.423 | 0.53 | 0.74 | 0.632 | 0.731 | 0.593 | 0.729 | 0.987 | 0.84 | 0.922 | 0.878 | 0.915 | 1.11 | 1.23 | 1.01 | 0.996 | 1.01
22 | SK-LU-1 | 0.511 | 0.624 | 0.49 | – | 0.625 | 0.646 | 0.763 | 0.622 | 0.535 | 0.698 | 1.11 | 1.32 | 1.05 | 1.06 | 1.63 | 0.806 | 0.888 | 0.865 | 0.964 | 0.904
23 | NCI-H2126 | 0.475 | 0.498 | 0.499 | 0.464 | 0.427 | 0.518 | 0.594 | 0.576 | 0.49 | 0.548 | 0.724 | 0.795 | 0.745 | 0.707 | 0.697 | 0.791 | 0.768 | 0.8 | 0.814 | 0.842
24 | NCI-H1793 | – | 0.339 | 0.306 | 0.33 | 0.329 | 0.442 | 0.464 | 0.489 | 0.323 | 0.454 | 0.667 | 0.701 | 0.722 | 0.73 | 0.676 | 0.488 | 0.621 | 0.693 | 0.582 | 0.75
25 | HOP-62 | 0.601 | 0.903 | 0.749 | 0.59 | 0.81 | 0.233 | 0.167 | 0.232 | 0.218 | 0.263 | 1.07 | 1.22 | 0.78 | 0.998 | 1.2 | 1.17 | 0.977 | – | 1.05 | 0.959
26 | NCI-H1395 | 0.428 | 0.433 | 0.411 | 0.416 | 0.41 | – | 0.649 | 0.709 | – | 0.735 | 1.22 | 1.02 | 1.21 | 1.07 | 1.18 | 0.95 | 1.19 | 0.999 | 1.06 | 0.897
27 | NCI-H2347 | 0.452 | 0.471 | 0.394 | 0.416 | 0.543 | 0.576 | 0.685 | 0.603 | 0.65 | 0.698 | 1.12 | 1.17 | 1.05 | 1.01 | 1.01 | 1.01 | 0.928 | 0.977 | 0.955 | 0.9

— the supplement of paper PMC10307832
